According to paper PMC6948154 (Cell reports, 2019):
pIC50: −log10 of the molar value.

What was measured:
[1] = biological target: Hedgehog acyltransferase (Hhat) (Homo sapiens, UniProt Q5VTY9, Y351A); test: in vitro Shh peptide palmitoylation by purified Y351A Hhat; assay type: biochemical
[2] = biological target: Hedgehog acyltransferase (Hhat) (Homo sapiens, UniProt Q5VTY9); test: NBD-palmitoyl-CoA uptake into liposomes with purified Hhat; assay type: biochemical
Sequence of Hedgehog acyltransferase (Hhat) (Homo sapiens, UniProt Q5VTY9) (Q5VTY9 whole entry): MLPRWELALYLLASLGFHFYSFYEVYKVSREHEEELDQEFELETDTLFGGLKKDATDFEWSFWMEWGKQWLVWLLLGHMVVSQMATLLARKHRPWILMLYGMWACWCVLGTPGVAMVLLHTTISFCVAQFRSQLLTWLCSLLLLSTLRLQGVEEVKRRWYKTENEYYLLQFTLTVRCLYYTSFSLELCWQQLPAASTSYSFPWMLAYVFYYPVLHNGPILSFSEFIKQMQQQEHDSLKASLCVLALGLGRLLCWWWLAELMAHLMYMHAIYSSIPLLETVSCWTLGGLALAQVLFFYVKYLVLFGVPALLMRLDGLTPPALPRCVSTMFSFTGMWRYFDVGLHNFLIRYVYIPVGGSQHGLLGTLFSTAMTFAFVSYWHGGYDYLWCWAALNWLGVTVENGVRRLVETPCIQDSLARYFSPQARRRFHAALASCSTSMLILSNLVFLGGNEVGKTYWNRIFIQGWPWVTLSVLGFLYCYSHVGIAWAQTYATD

Sequence of Hedgehog acyltransferase (Hhat) (Homo sapiens, UniProt Q5VTY9, Y351A) (Q5VTY9 whole entry Y351A): as the sequence (Q5VTY9 whole entry) above, with Y351A counted along it

Molecule	in vitro Shh peptide palmitoylation by purified Y351A Hhat [1]	pIC50 [2]
CC(C)(COP(=O)(O)OP(=O)(O)OC[C@H]1O[C@@H](n2cnc3c(N)ncnc32)[C@H](O)[C@@H]1OP(=O)(O)O)[C@@H](O)C(=O)NCCC(=O)NCCSC(=O)CCCCCCCCCCCCCCCI [[125I] IodoPalmitoyl-CoA]	Y351A retained near-WT levels of Shh palmitoylation activity when assayed in vitro using detergent-solubilized membranes and as a purified enzyme	–
TDI-3410	–	5.61
